{"source": "patent US12139443B2", "about": "“Concentrated liquid compositions of urease inhibitors for nitrogen sources” (priority 2017, dated 2024)", "key": {"[1]": {"test": "Time to dissolution of nitrification inhibitor coated with urease formulation", "format": "physicochemical", "settings": "UAN 30", "excerpt": "• 1. In a 4 oz. glass jar add 97 grams of either Deionized (DI) Water or UAN 30. • 2. Add a ¾ inch magnetic stir bar and place on a Corning/Model PC-420 Heater/Stirrer and set stirring speed at #7. • 3. Charge 3 grams of a nitrification inhibitor coated or uncoated and start stop watch. • 4. Visually determine the point at which all particles of the nitrification inhibitor have dissolved and record this time as time to dissolution."}, "[2]": {"test": "Thermal Stability of NBPT (oven exposure, weight loss and HPLC)", "format": "physicochemical", "settings": "for % NBPT present by LC/UV % w/w: single determination", "experimental": "One of the advantages of this invention is the application, at moderate temperatures, of thermally sensitive urease inhibitor onto the surfaces of urea. Moderate temperatures are defined as a range of about 20-70° C. Testing procedures were established to exactly weigh samples of approximately 1 gram of NBPT in an aluminum pan and expose them to different temperatures in an oven over varying amounts of time. The initial weight of NBPT in the pan was compared to the final weight of sample in the pan. The % NBPT was then determined by HPLC of the residual from the final weight pan by the following procedure:\n1. Crush a portion of sample (˜5 g) using mortar and pestle.\n2. Weigh about a 100 mg sample, in duplicate, and add to separate 10 mL volumetric flasks.\n3. Bring to volume of 10 ml volumetric flask with 50:50 ACN(Acetonitrile):H2O.\n5. Transfer a portion through a Nylon 0.45 μm syringe filter into an HPLC vial.\n6. Inject on LC/UV (15-μg/mL calibration standard)."}, "[3]": {"test": "Crush strength of coated urea granules", "format": "physicochemical", "settings": "New Leader tester scale 1-10 (1 very poor), average of 10 runs", "excerpt": "Crush strength is the minimum pressure required to crush a granule of urea. Crush strength is of concern during the application of urea and is a measure of the urea's expected broadcast distance. Crush strength is related to the maximum rotations per minute (rpm) for the spinner portion of the urea spreader. The higher the rpms of the spinner, the more distance the urea can be broadcasted. High rpms require high crush strength urea granules in order for the granules not to be pulverized to dust by the broadcast process.\nIn order for the coated granules of urea to be tested, they were first sifted through a series of screens to ensure that the urea granules to be tested were of similar particle size as the urea particle size has an impact on crush resistance. A mesh size of 320-400 was chosen as the urea particle size. A New Leader crushing strength tester was used utilizing a scale from 1-10 wherein a reading of 1 is rated very poor crush strength. The results in Table 14 are for coated urea stored at 25° C. and at 50° C. Also included in Table 14 is the weight percentage of DMSO of the composition of the coated urea.\nHowever, it should be understood that a different method of applying example 86 to the surfaces of the urea granules might result in better coverage (e.g., atomization onto the granules). […]"}, "[4]": {"system": "urease enzyme", "quoted_text": "The treated urea was prepared as follows:\n• 1. Charging weight of urea as directed by Table 8 to a container. • 2. The urea was slowly agitated with overhead stirrer with U shaped agitator blade. • 3. The example was slowly dripped on the urea while mixing in the amount as directed by Table 8 (rate=3 quarts/ton of urea). • 4. […] The coated urea was placed in a jar and sealed.\n• 1. In a 6″×9″ rectangular Tupperware sealable container with holes drilled on each end and sealed with tape charge 400 grams of West Texas Sandy Loam Soil and 100 grams of distilled water, mix thoroughly to a consistency of thick “mud” (% moisture should be between 30-40%). • 2. Calculate the surface area to be treated. • a. 6″×9.5″=sq in/1 44 sq in/sq ft=0.395 sq ft • b. 0.395 sq ft/43,560 sq ft/acre=0.0000091 acres • 3. Calculate amount of urea and treated urea to charge to the containers of soil • a. Application Rate: 400 pounds urea per acre • b. 400 lbs/acre/43560 sq ft/acre=0.009 lbs/sq ft×0.395 sq ft/container=0.0036 lbs/container×454 g/lb=1.65 grams urea per container. • c. Add 1.65 grams of urea and various treated ureas to each container • 4. Ammonia Volatilization Screening Test • a. Evenly distribute over the soil in each container 1.65 grams of example to be tested, • b. Seal container, • c. Take readings of ammonia volatilization of each container over a selected period of time as directed in Table 9, • i. Drager tube measurement • (1) Use Drager pump with 0-600 ppm (or range TBD) ammonia drager tube. • (2) At specified times, quickly remove the tape on one end of container and insert the drager tube/pump. • (3) Fully squeeze pump 20 times allowing enough time for pump to fully inflate between each squeeze and then remove the tube from the container and read. • (4) Open container lid and vent the remaining ammonia gas out of the container and reseal. • (5) Repeat procedure at next designated time."}, "[5]": {"system": "nitrification of urea fertilizer", "test": "University of Arkansas soil incubation trial, urea coated with N Bound", "settings": "Urea without inhibitor", "experimental": "To determine what minimum effective levels of DCD are required to meet acceptable levels of nitrification inhibition and to maximize performance versus inhibitor level, studies were performed at Auburn University, South Dakota State University and University of Arkansas. These studies were performed by coating urea with a liquid nitrification inhibitor product, trade name N Bound, which contained approximately 28% DCD. The application rates of N Bound on urea (Units are in quarts of N Bound/ton of urea) was varied to measure application level versus the conversion of urea to nitrate measured as mg NO3 extracted from the applied soil.\nA trial conducted at University of Arkansas was designed to measure and compare the nitrate concentrations from the microbial activity on untreated urea and ureas coated with N Bound that had been applied to classified as a Calhoun silt loam (pH=7.4) at varying rates. The objective was to determine the minimum inhibitor application rate to achieve optimize nitrification inhibition."}}, "note": "Several values for one entry are separate records, joined by “and”; a condition that tells them apart may be missing. Equal entries are not always repeated. Where two headings read alike, the source gives them in different places."}
{"smiles": "N#CN=C(N)N", "note": "[DCD untreated, Dicyandiamide]", "values": [{"measurement": "Initial Appearance", "setting": "[1]; 3%", "result": "clear"}, {"measurement": "Time to Dissolution", "setting": "[1]; 3 grams in 97 grams (3%)", "result": 1740, "unit": "s"}]}
{"smiles": "CCCCNP(N)(N)=S", "note": "[NBPT, N-(n-butyl)thiophosphoric triamide]", "values": [{"measurement": "% NBPT present by LC/UV Average", "setting": "[2]; 50° C./3600 sec", "result": 99.38, "unit": "%"}, {"measurement": "% Weight Loss Average", "setting": "[2]; 50° C./3600 sec", "result": 0.0, "unit": "%"}, {"measurement": "% NBPT present by LC/UV % w/w", "setting": "[2]; 50° C./3600 sec", "result": "99.17% and 99.58%"}, {"measurement": "% NBPT present by LC/UV Average", "setting": "[2]; 70° C./900 sec", "result": 99.38, "unit": "%"}, {"measurement": "% Weight Loss Average", "setting": "[2]; 70° C./900 sec", "result": 0.26, "unit": "%"}, {"measurement": "% NBPT present by LC/UV % w/w", "setting": "[2]; 70° C./900 sec", "result": "99.53% and 99.23%"}, {"measurement": "% NBPT present by LC/UV Average", "setting": "[2]; 100° C./300 sec", "result": 22.92, "unit": "%"}, {"measurement": "% Weight Loss Average", "setting": "[2]; 100° C./300 sec", "result": 10.36, "unit": "%"}, {"measurement": "% NBPT present by LC/UV % w/w", "setting": "[2]; 100° C./300 sec", "result": "23.59% and 22.25%"}, {"measurement": "% NBPT present by LC/UV Average", "setting": "[2]; 120° C./180 sec", "result": 4.67, "unit": "%"}, {"measurement": "% Weight Loss Average", "setting": "[2]; 120° C./180 sec", "result": 13.55, "unit": "%"}, {"measurement": "% NBPT present by LC/UV % w/w", "setting": "[2]; 120° C./180 sec", "result": "4.79% and 4.54%"}, {"measurement": "% NBPT present by LC/UV Average", "setting": "[2]; 140° C./90 sec", "result": 3.84, "unit": "%"}, {"measurement": "% Weight Loss Average", "setting": "[2]; 140° C./90 sec", "result": 13.42, "unit": "%"}, {"measurement": "% NBPT present by LC/UV % w/w", "setting": "[2]; 140° C./90 sec", "result": "3.68% and 3.99%"}, {"measurement": "degradation (HPLC)", "setting": "[2]; 15 minutes at 70° C.", "result": "no degradation"}, {"measurement": "% NBPT present by LC/UV Average", "setting": "[2]; NBPT std, not heated", "result": 99.25, "unit": "%"}, {"measurement": "% NBPT present by LC/UV % w/w", "setting": "[2]; NBPT std, not heated", "result": "99.35% and 99.16%"}, {"measurement": "thermal stability (HPLC)", "setting": "[2]; temperatures >100° C.", "result": "poor thermal stability"}]}
{"smiles": "NC(N)=O", "note": "[Urea]", "values": [{"measurement": "Crush Strength stored 24 hrs. @ 25 C.", "setting": "[3]", "result": 5.4}, {"measurement": "Crush Strength stored 24 hrs. @ 50 C.", "setting": "[3]", "result": 6.75}, {"measurement": "Ammonia Reading", "setting": "[4]; 72 hours, 1.65 grams treated urea (3 quarts/ton) on West Texas Sandy Loam Soil", "result": 220, "unit": "ppm"}, {"measurement": "Ammonia Reading", "setting": "[4]; 144 hours", "result": 475, "unit": "ppm"}, {"measurement": "Ammonia Reading", "setting": "[4]; 264 hours", "result": 460, "unit": "ppm"}, {"measurement": "Nitrate-N Concentration", "setting": "[5]; Day 1, Calhoun silt loam", "result": 113.4, "unit": "mg NO3—N/kg soil"}, {"measurement": "Nitrate-N Concentration", "setting": "[5]; Day 3", "result": 98.6, "unit": "mg NO3—N/kg soil"}, {"measurement": "Nitrate-N Concentration", "setting": "[5]; Day 7", "result": 151.6, "unit": "mg NO3—N/kg soil"}, {"measurement": "Nitrate-N Concentration", "setting": "[5]; Day 14", "result": 202.8, "unit": "mg NO3—N/kg soil"}, {"measurement": "Nitrate-N Concentration", "setting": "[5]; Day 21", "result": 221.2, "unit": "mg NO3—N/kg soil"}, {"measurement": "Nitrate-N Concentration", "setting": "[5]; Day 28", "result": 262.3, "unit": "mg NO3—N/kg soil"}, {"measurement": "Nitrate-N Concentration", "setting": "[5]; Day 35", "result": 255.3, "unit": "mg NO3—N/kg soil"}]}
